# Data: publication PMC7481482, “Development of Anthraquinone Derivatives as Ectonucleoside Triphosphate Diphosphohydrolase (NTPDase) Inhibitors With Selectivity for NTPDase2 and NTPDase3” (Frontiers in Pharmacology, 2020)
# How the values were obtained:
# human NTPDase3 = target: T1, human NTPDase3 (Homo sapiens, UniProt O75355); assay: Malachite green assay, human NTPDase3; assay type: biochemical; conditions: 100 µM ATP, COS-7 membrane preparation; for inhibition at 2 µM: 2 μM compound, read-out: % inhibition at 2 μM concentration, NTPDase3
# T1 construct: expressed in transfected cells; host or cells: COS-7 cells (membrane preparation)
# T1 sequence (O75355 1-529): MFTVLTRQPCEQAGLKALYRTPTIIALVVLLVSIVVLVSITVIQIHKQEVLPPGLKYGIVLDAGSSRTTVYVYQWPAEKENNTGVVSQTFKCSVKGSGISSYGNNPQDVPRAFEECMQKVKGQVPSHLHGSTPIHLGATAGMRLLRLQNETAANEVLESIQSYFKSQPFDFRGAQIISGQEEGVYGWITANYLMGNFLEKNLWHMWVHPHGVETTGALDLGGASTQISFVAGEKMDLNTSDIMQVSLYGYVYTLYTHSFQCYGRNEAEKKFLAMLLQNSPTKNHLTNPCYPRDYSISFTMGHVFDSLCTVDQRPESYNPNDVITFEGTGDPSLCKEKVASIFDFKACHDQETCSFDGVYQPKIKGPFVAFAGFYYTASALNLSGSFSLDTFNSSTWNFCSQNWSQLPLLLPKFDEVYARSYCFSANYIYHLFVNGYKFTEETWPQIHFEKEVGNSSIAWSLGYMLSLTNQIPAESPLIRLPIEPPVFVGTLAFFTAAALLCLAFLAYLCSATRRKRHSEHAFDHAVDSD
# Procedure: (§1) Membrane preparations expressing human NTPDase1, -2, -3, or -8, respectively, were obtained as previously described ([Sévigny et al., 1997]; [Cogan et al., 1999]; [Kukulski et al., 2005]; [Lecka et al., 2013]; [Lee et al., 2018]). Enzyme inhibition assays were performed using the malachite green assay in analogy to published procedures with some modifications ([Dou et al., 2018]). The reaction buffer contained 10 mM HEPES, 2 mM CaCl2, and 1 mM MgCl2 (pH 7.4) in a final volume of 50 μL in transparent 96-well half-area plates. The compounds were initially tested at a final concentration of 2 µM using a COS-7-cell membrane preparation expressing the appropriate NTPDase isoenzyme (protein amount: 143 ng for NTPDase1, 175 ng for NTPDase2, 152 ng for NTPDase3, and 175 ng for NTPDase8). Preincubated of the enzyme preparations was perfomred at 37°C in the presence or absence of test compounds with gentle shaking (Eppendorf Thermomixer comfort at 500 rpm) for 5 min. […] ([Kukulski et al., 2005]). After 15 min of incubation at 37°C with gentle shaking, the reaction was stopped by the addition of the detection reagents (20 µL malachite green solution, 0.6 mM, and 30 µL of ammonium molybdate solution, 20 mM, in 1.5 M sulfuric acid). The released inorganic phosphate was quantified after 20 min of gentle shaking at 25°C by measuring the absorption of the malachite green-phosphomolybdate complex at 600 nm using a BMG PheraStar FS plate reader (BMG Labtech GmbH, Ortenberg, Germany). The corrected absorption was calculated by subtracting the absorption of the negative control samples, which were incubated with previously denatured enzyme (90°C, 15 min). Full concentration-inhibition curves were determined with inhibitor concentrations ranging from 0.03 to 30 µM in the presence of 2% DMSO. Inhibition-type experiments were performed with 25, 50, 100, 150 and 200 µM ATP as substrate for NTPDase2 in the presence of inhibitor 20 (0, 0.25, 0.5, and 1 µM) and 25, 50, 100 and 150 µM ATP substrate for NTPDase3 and compound 42 (0.25, 0.5, and 1 µM). For all of the presented data, at least three independent experiments were performed, and IC50 values were calculated by GraphPad Prism 8 software.
# (§2) Inhibition of human NTPDases was performed using the malachite green assay, which was established on a robotic system (Z’ factors > 0.70) ([Baykov et al., 1988]; [Fiene et al., 2015]). The malachite green assay enables the detection of the phosphate produced by the enzymatic hydrolysis of nucleotides. A fixed substrate concentration of 50 µM ATP for NTPDase1 and 100 µM for NTPDase2, -3, and -8 was employed. Test compounds were initially screened at a concentration of 2 μM. […] A total of 48 synthesized anthraquinone derivatives including 14 new compounds not previously described in the literature were evaluated for their inhibitory activity at human NTPDase1, -2, -3, and -8 (for results see Table 1).
# human NTPDase2 = target: T2, human NTPDase2 (Homo sapiens, UniProt Q9Y5L3); assay: Malachite green assay, human NTPDase2; assay type: biochemical; conditions: 100 µM ATP, COS-7 membrane preparation; for inhibition at 2 µM: 2 μM compound, read-out: % inhibition at 2 μM concentration, NTPDase2; for IC50: read-out: IC50 ± SEM, NTPDase2
# T2 construct: expressed in transfected cells; host or cells: COS-7 cells (membrane preparation)
# T2 sequence (Q9Y5L3 1-495): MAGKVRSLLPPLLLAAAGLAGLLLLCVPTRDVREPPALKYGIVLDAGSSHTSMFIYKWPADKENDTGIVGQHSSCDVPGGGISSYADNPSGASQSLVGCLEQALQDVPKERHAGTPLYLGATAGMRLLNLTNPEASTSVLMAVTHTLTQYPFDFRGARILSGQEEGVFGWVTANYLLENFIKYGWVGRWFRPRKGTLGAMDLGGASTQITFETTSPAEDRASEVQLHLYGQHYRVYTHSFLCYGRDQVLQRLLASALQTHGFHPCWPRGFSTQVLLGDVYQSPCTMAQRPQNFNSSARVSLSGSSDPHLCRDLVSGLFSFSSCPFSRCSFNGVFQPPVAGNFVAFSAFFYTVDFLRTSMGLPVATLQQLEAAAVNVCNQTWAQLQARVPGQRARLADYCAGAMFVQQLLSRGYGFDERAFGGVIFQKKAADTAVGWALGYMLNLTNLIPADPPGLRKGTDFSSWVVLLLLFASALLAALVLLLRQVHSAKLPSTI
# Procedure: as §1, §2
# human NTPDase1 = target: T3, human NTPDase1 (Homo sapiens, UniProt P49961); assay: Malachite green assay, human NTPDase1; assay type: biochemical; conditions: 2 μM compound; 50 µM ATP; COS-7 membrane preparation; read-out: % inhibition at 2 μM concentration, NTPDase1
# T3 construct: expressed in transfected cells; host or cells: COS-7 cells (membrane preparation)
# T3 sequence (P49961 1-510): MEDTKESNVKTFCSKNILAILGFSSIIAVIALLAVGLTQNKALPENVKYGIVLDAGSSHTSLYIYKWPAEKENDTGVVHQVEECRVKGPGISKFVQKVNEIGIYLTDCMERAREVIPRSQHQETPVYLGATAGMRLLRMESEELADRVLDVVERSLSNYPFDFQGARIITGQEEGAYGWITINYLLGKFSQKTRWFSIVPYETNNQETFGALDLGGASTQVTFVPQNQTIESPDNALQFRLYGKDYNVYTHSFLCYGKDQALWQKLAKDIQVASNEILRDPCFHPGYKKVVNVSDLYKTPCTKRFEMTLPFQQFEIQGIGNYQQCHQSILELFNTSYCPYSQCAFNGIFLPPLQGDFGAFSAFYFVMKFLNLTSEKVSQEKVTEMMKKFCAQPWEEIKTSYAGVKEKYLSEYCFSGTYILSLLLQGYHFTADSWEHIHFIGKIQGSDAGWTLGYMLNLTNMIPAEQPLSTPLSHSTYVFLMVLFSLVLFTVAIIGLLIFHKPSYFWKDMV
# Procedure: as §1, §2
# human NTPDase8 = target: T4, human NTPDase8 (Homo sapiens, UniProt Q5MY95); assay: Malachite green assay, human NTPDase8; assay type: biochemical; conditions: 2 μM compound; 100 µM ATP; COS-7 membrane preparation; read-out: % inhibition at 2 μM concentration, NTPDase8
# T4 construct: expressed in transfected cells; host or cells: COS-7 cells (membrane preparation)
# T4 sequence (Q5MY95 1-495): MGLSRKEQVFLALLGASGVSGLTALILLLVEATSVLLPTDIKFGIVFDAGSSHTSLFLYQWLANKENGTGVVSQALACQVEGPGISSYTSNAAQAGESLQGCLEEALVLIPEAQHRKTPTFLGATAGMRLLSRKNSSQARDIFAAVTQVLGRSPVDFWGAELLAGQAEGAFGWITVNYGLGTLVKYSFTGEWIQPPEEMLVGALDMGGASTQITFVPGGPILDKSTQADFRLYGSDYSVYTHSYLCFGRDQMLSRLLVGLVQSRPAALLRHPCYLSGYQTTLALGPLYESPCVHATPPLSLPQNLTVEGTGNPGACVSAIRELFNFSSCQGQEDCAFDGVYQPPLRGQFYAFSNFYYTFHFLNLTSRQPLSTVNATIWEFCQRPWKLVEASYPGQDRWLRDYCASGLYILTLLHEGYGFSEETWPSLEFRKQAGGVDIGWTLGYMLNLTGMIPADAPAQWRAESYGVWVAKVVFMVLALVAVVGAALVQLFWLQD
# Procedure: as §1, §2
inhibition at 2 µM (human NTPDase3) [%],melting point [°C],inhibition at 2 µM (human NTPDase2) [%],inhibition at 2 µM (human NTPDase1) [%],inhibition at 2 µM (human NTPDase8) [%],IC50 (human NTPDase2) [nM],"IC50 (human NTPDase3; read-out: IC50 ± SEM, NTPDase3) [nM]",SMILES
-3,> 300,5,-4,-4,,,"Nc1c(S(=O)(=O)[O-])cc(Nc2ccc(CO)cc2)c2c1C(=O)c1ccccc1C2=O.[Na+] [Compound 29, Sodium 1-amino-4-(4-(hydroxymethyl)phenylamino)-9,10-dioxo-9,10-dihydroanthracene-2-sulfonate]"
2,> 300,21,0,4,,,"Nc1c(S(=O)(=O)[O-])cc(Nc2cccc(I)c2)c2c1C(=O)c1ccccc1C2=O.[Na+] [Compound 23, Sodium 1-amino-4-(3-iodophenylamino)-9,10-dioxo-9,10-dihydroanthracene-2-sulfonate]"
32,> 300,-3,-21,-10,,,"Nc1c(S(=O)(=O)[O-])cc(Nc2cccc(F)c2C(=O)O)c2c1C(=O)c1ccccc1C2=O.[Na+] [Compound 35, Sodium 1-amino-4-(2-carboxy-3-fluorophenylamino)-9,10-dioxo-9,10-dihydroanthracene-2-sulfonate]"
42,> 300,,52,21,1080 ± 80,,"Nc1c(S(=O)(=O)[O-])cc(Nc2ccc(Sc3ccc(Cl)cc3)cc2)c2c1C(=O)c1ccccc1C2=O.[Na+] [Compound 45, Sodium 1-amino-4-[4-(4-chlorophenylthio)phenylamino]-9,10-dioxo-9,10-dihydroanthracene-2-sulfonate]"
16,> 300,,34,4,951 ± 225,,"COc1ccc(Sc2ccc(Nc3cc(S(=O)(=O)[O-])c(N)c4c3C(=O)c3ccccc3C4=O)cc2)cc1.[Na+] [Compound 47, Sodium 1-amino-4-[4-(4-methoxyphenylthio)phenylamino]-9,10-dioxo-9,10-dihydroanthracene-2-sulfonate]"
10,> 300,,1,6,984 ± 327,,"Nc1c(S(=O)(=O)[O-])cc(Nc2cccc(Sc3ccccc3)c2)c2c1C(=O)c1ccccc1C2=O.[Na+] [Compound 41, Sodium 1-amino-4-(3-(phenylsulfanyl)phenylamino)-9,10-dioxo-9,10-dihydroanthracene-2-sulfonate]"
,> 300,7,-6,-11,,1520 ± 280,"Nc1c(S(=O)(=O)[O-])cc(Nc2cccc(CC(=O)O)c2)c2c1C(=O)c1ccccc1C2=O.[Na+] [Compound 30, Sodium 1-amino-4-(3-(carboxymethyl)phenylamino)-9,10-dioxo-9,10-dihydroanthracene-2-sulfonate]"
11,> 300,12,-1,4,,,"Nc1c(S(=O)(=O)[O-])cc(Nc2ccccc2CO)c2c1C(=O)c1ccccc1C2=O.[Na+] [Compound 27, Sodium 1-amino-4-(2-(hydroxymethyl)phenylamino)-9,10-dioxo-9,10-dihydroanthracene-2-sulfonate]"
-9,> 300,7,-2,1,,,"Nc1c(S(=O)(=O)[O-])cc(Nc2cccc(CO)c2)c2c1C(=O)c1ccccc1C2=O.[Na+] [Compound 28, Sodium 1-amino-4-(3-(hydroxymethyl)phenylamino)-9,10-dioxo-9,10-dihydroanthracene-2-sulfonate]"
-2,229 to 230,5,-4,-4,,,"CCc1cccc(Nc2cc(Br)c(N)c3c2C(=O)c2ccccc2C3=O)c1 [Compound 53, 1-Amino-2-bromo-4-(3-ethylphenylamino)anthracene-9,10-dione]"
